Residues, ends and D or L forms follow the SMILES beside them.
How the values were obtained:
in vitro = conditions: human, pH 7.4
Protocol: Each peptide (C = 1·10^–4 M) and metal complex (metal:ligand ratio 1:1) was incubated in a sample containing 1 ml of human plasma (obtained as a pool of 40 individuals from the University Hospital of Ferrara) and 1 ml of ammonium acetate buffer (pH 7.4) at 37 °C. L-phenylalaninol is added as internal standard. At regular time intervals, 200 μl aliquots were taken and enzymatic reaction was blocked by adding 300 μl of HClO4 0.5 M. The sample was then centrifugated for 6 min at 14,000 × g. The supernatant was then filtered and analysed by HPLC. The analytical column was an Agilent Poroshell 120 SB-C18 (4.6 × 100 mm, 2.7 μm, pore size 120 Å). Flow rate = 0.5 ml/min, mobile phase H2O + 0.1% v/v TFA, linear gradient from 0 to 60% of acetonitrile + 0.1% v/v TFA over 30 min for the elution of peptides, temperature 25 °C, detection wavelength 210 nm. […] Informed consent was obtained from all subjects and/or their legal guardian(s) prior to the donation of blood samples. All experimental protocols were approved by the National Research and Research Transversal Processes boards at University of Ferrara. All methods were carried out in accordance with relevant guidelines and regulations.

[1] = Potentiometry: protonation of the ligand; assay type: physicochemical; conditions: T = 298 K, I = 0.1 M (KCl)
Text: Stability constants for proton and metal complexes were obtained from pH-metric titration curves registered at T = 298 K and ionic strength 0.1 M (KCl). The potentiometric apparatus was previously described. Solutions were titrated with 0.1 M carbonate-free KOH. The electrode was daily calibrated for hydrogen ion concentration by titrating HNO3 with the standard base solution, under the same experimental conditions as above. The asymmetry potential and the slope of the electrode couple were computed by means of […][41] and Glee[42] programs. The purities and exact concentrations of the ligand solutions were determined by the Gran method. The […][44] program was employed for the overall formation constant (β) calculations, referred to the following equilibrium equation: pM + qL + rH ⇆ MpLqHr (charges omitted; p is 0 in the case of ligand protonation; r can be negative). The computed standard deviations (referring to random errors only) were given by the program itself and are shown in parentheses as uncertainties on the last significant figure. Hydrolysis constants for metal ions were taken from the literature[45],[46]. The distribution and competition diagrams were computed using the HYSS program.
1. Wild-type calcitermin: thermodynamic data
Wild-type calcitermin (WT) has been previously investigated by our research group in aqueous solutions and ionic medium NaClO4.1 For the sake of comparison, potentiometric studies of WT and its copper and zinc complexes have been performed in a different ionic medium (KCl 0.1 M). The study of the speciation under different experimental conditions, changing ionic medium and metal-ligand ratio, is essential to comprehensively describe the thermodynamics of calcitermin, which is usually found in multicomponent media like biological fluids.
Table S1. Equilibrium constants for protonation of WT and its Cu2+ and Zn2+ complex formation at T = 298 K and I = 0.1 M (KCl). Values in parentheses are standard deviations on the last significant figure.

## CC[C@H](C)[C@H](NC(=O)[C@H](C)NC(=O)[C@@H](NC(C)=O)C(C)C)C(=O)N[C@@H](C)C(=O)N[C@@H](CC(C)C)C(=O)N[C@@H](CCCCN)C(=O)N[C@@H](C)C(=O)N[C@@H](C)C(=O)N[C@@H](Cc1c[nH]cn1)C(=O)N[C@@H](Cc1ccc(O)cc1)C(=O)N[C@@H](Cc1c[nH]cn1)C(=O)N[C@H](C(=O)N[C@@H](Cc1c[nH]cn1)C(=O)N[C@@H](CCCCN)C(=O)N[C@@H](CCC(=O)O)C(=O)O)[C@@H](C)O [L1, Ac-VAIALKAAHYHTHKE] (Ac-VAIALKAAHYHTHKE-OH)
In vitro
  half-life: 135 min

## CC[C@H](C)[C@H](NC(=O)[C@H](C)NC(=O)[C@@H](NC(C)=O)C(C)C)C(=O)N[C@@H](C)C(=O)N[C@@H](CC(C)C)C(=O)N[C@@H](CCCCN)C(=O)N[C@@H](C)C(=O)N[C@@H](C)C(=O)N[C@@H](Cc1c[nH]cn1)C(=O)N[C@@H](Cc1ccc(O)cc1)C(=O)N[C@@H](Cc1c[nH]cn1)C(=O)N[C@H](C(=O)N[C@@H](Cc1c[nH]cn1)C(=O)N[C@@H](CCCCN)C(=O)N[C@@H](CCC(=O)O)C(N)=O)[C@@H](C)O [L2, Ac-VAIALKAAHYHTHKE-NH2] (Ac-VAIALKAAHYHTHKE-NH2)
In vitro
  half-life: ~68 min

## CC[C@H](C)[C@H](NC(=O)[C@H](C)NC(=O)[C@@H](N)C(C)C)C(=O)N[C@@H](C)C(=O)N[C@@H](CC(C)C)C(=O)N[C@@H](CCCCN)C(=O)N[C@@H](C)C(=O)N[C@@H](C)C(=O)N[C@@H](Cc1c[nH]cn1)C(=O)N[C@@H](Cc1ccc(O)cc1)C(=O)N[C@@H](Cc1c[nH]cn1)C(=O)N[C@H](C(=O)N[C@@H](Cc1c[nH]cn1)C(=O)N[C@@H](CCCCN)C(=O)N[C@@H](CCC(=O)O)C(N)=O)[C@@H](C)O [L3, VAIALKAAHYHTHKE-NH2] (H-VAIALKAAHYHTHKE-NH2)
In vitro
  half-life: ~20 min

## CC[C@H](C)[C@H](NC(=O)[C@H](C)NC(=O)[C@@H](N)C(C)C)C(=O)N[C@@H](C)C(=O)N[C@@H](CC(C)C)C(=O)N[C@@H](CCCCN)C(=O)N[C@@H](C)C(=O)N[C@@H](C)C(=O)N[C@@H](Cc1c[nH]cn1)C(=O)N[C@@H](Cc1ccc(O)cc1)C(=O)N[C@@H](Cc1c[nH]cn1)C(=O)N[C@H](C(=O)N[C@@H](Cc1c[nH]cn1)C(=O)N[C@@H](CCCCN)C(=O)N[C@@H](CCC(=O)O)C(=O)O)[C@@H](C)O [WT, VAIALKAAHYHTHKE, reference compound] (H-VAIALKAAHYHTHKE-OH)
[1]
  protonation logK H2L: 10.53
  protonation logK H3L: 9.50
  protonation logK H4L: 7.73
  protonation logK H5L: 6.93
  protonation logK H6L: 6.33
  protonation logK H7L: 5.65
  protonation logK H8L: 4.22
  protonation logK H9L: 2.93
  protonation logK HL: 10.61
  protonation logβ H2L: 21.14(2)
  protonation logβ H3L: 30.64(4)
  protonation logβ H4L: 38.38(4)
  protonation logβ H5L: 45.31(4)
  protonation logβ H6L: 51.64(4)
  protonation logβ H7L: 57.29(4)
  protonation logβ H8L: 61.51(4)
  protonation logβ H9L: 64.44(5)
  protonation logβ HL: 10.61(6)
In vitro
  half-life: 18 ± 3 min
